Starred links: 1 amine or outer side, 2 acyl side, 3 side chain; linkers in the order of their positions; H or OH if unused. Positions of bridges follow the written chain, without caps; N, C: chain ends. Non-standard residues stand in square brackets, D forms with d. Residues, ends and D or L forms follow the SMILES beside them. Chains are numbered I, II in the order given. Actinocin(9to1) = Cc1c2oc3c(C)ccc(C(=O)[*:1])c3nc-2c(C(=O)[*:2])c(N)c1=O; NMeV = CN[C@H](C(=O)O)C(C)C; Sar = CNCC(=O)O
Columns and labels:
HeLa cells [1] = assay: Comparison with single layer culture method in cell proliferation test using agent for inducing apoptosis; format: cell-based, human; settings: day 4
Description: This aqueous solution was sterilized at 121° C. for 20 min in an autoclave.
Each plate was cultured by being stood still in a CO2 incubator (37° C., 5% CO2). […] To the culture medium on day 4 was added an ATP reagent (150 μL) (CellTiter-Glo (registered trade mark) Luminescent Cell Viability Assay, manufactured by Promega) to give a suspension, which was stood for about 10 min at room temperature, and the luminescence intensity (RLU value) was measured by FlexStation3 (manufactured by Molecular Devices), and the number of viable cells was measured by subtracting the luminescence value of the medium alone. For WST-8 measurement, a WST-8 solution (manufactured by is DOJINDO Laboratories, 15 μL) was added, the mixture was incubated at 37° C. for 100 min, the absorbance at 450 nm was measured by an absorbance spectrometer (manufactured by Molecular Devices, SPECTRA MAX 190), and the number of viable cells was measured by subtracting the absorbance of the medium alone.

HeLa cells [2] = assay: Cell proliferation test using various anticancer drugs; format: cell-based, human; settings: 1 μM; HeLa cells 5 days later; DAG 0.030% medium
Description: This aqueous solution was sterilized at 121° C. for 20 min in an autoclave. […] The anticancer drug used was Adriamycin (manufactured by WAKO), Paclitaxel (manufactured by WAKO) or Mitomycin C (manufactured by WAKO).
Successively, this plate was cultured by being stood still in a CO2 incubator (37° C., 5% CO2) for 7 days. After culturing for 3, 5, 7 days, to the culture medium was added a WST-8 solution (manufactured by DOJINDO Laboratories, 20 μL), and the mixture was incubated at 37° C. for 100 min. The absorbance at 450 nm was measured by an absorbance spectrometer (manufactured by Molecular Devices, SPECTRA MAX 190), and the number of viable cells was measured by subtracting the absorbance of the medium alone. The culture medium containing the cells after 5 days of culture was stirred with a pipette and the obtained stirred solution (20 μL) was mixed with Trypan Blue stain 0.4% (manufactured by Invitrogen, 20 μL) and the cell density was measured under a microscope.

[3] = 1 μM, deacylated gellan gum addition group (0.015%)
[4] = 1 μM, single layer culture group
[5] = 10 μM, deacylated gellan gum addition group (0.015%)
[6] = 10 μM, single layer culture group
[7] = 100 μM, deacylated gellan gum addition group (0.015%)
[8] = 100 μM, single layer culture group

Structure (SMILES)	% Control of RLU value (ATP) (HeLa cells [1]; [3]) [% Control]	% Control of absorbance at 450 nm (WST-8) (HeLa cells [1]; [3]) [% Control]	% Control of RLU value (ATP) (HeLa cells [1]; [4]) [% Control]	% Control of absorbance at 450 nm (WST-8) (HeLa cells [1]; [4]) [% Control]	% Control of RLU value (ATP) (HeLa cells [1]; [5]) [% Control]	% Control of absorbance at 450 nm (WST-8) (HeLa cells [1]; [5]) [% Control]	% Control of RLU value (ATP) (HeLa cells [1]; [6]) [% Control]	% Control of absorbance at 450 nm (WST-8) (HeLa cells [1]; [6]) [% Control]	cell density (HeLa cells [2])	% Control of RLU value (ATP) (HeLa cells [1]; [7]) [% Control]	% Control of absorbance at 450 nm (WST-8) (HeLa cells [1]; [7]) [% Control]	% Control of RLU value (ATP) (HeLa cells [1]; [8]) [% Control]	% Control of absorbance at 450 nm (WST-8) (HeLa cells [1]; [8]) [% Control]
Cc1c2oc3c(C)ccc(C(=O)N[C@@H]4C(=O)N[C@H](C(C)C)C(=O)N5CCC[C@H]5C(=O)N(C)CC(=O)N(C)[C@@H](C(C)C)C(=O)O[C@@H]4C)c3nc-2c(C(=O)N[C@@H]2C(=O)N[C@H](C(C)C)C(=O)N3CCC[C@H]3C(=O)N(C)CC(=O)N(C)[C@@H](C(C)C)C(=O)O[C@@H]2C)c(N)c1=O [Actinomycin D] (I: T[dV]P[Sar][NMeV] / II: T[dV]P[Sar][NMeV]; ester I:1-I:C, II:1-II:C; linker I:N-II:N via Actinocin(9to1))	4	3	2	2	6	12	2	4					
COc1cccc2c1C(=O)c1c(O)c3c(c(O)c1C2=O)C[C@@](O)(C(=O)CO)C[C@@H]3O[C@H]1C[C@H](N)[C@H](O)[C@H](C)O1 [Adriamycin]									0.6 10^4 cells/mL				
C[C@@H]1C[C@@H]([C@H](O)CC2CC(=O)NC(=O)C2)C(=O)[C@@H](C)C1 [Cycloheximide]					9	4	29	21		4	1	9	7
C[C@@H]1C[C@H]2[C@@H]3CCC4=CC(=O)C=C[C@]4(C)[C@@]3(F)[C@@H](O)C[C@]2(C)[C@@]1(O)C(=O)CO [Dexamethasone]	232	184			241	173	116						

— patent US11371013B2, “Culture medium composition and method of culturing cell or tissue using thereof” (Nissan Chemical Industries, Ltd., priority 2012, dated 2022)
